Experimental data published in the Kinase Knowledgebase extract (Sharma et al. 2016).

What follows are molecules tested against MAPK14 (human) (UniProt Q16539) (assay: Inhibition of MAPK14 Kinase Activity).
Chain of MAPK14 (human) (Q16539 whole entry, looked up): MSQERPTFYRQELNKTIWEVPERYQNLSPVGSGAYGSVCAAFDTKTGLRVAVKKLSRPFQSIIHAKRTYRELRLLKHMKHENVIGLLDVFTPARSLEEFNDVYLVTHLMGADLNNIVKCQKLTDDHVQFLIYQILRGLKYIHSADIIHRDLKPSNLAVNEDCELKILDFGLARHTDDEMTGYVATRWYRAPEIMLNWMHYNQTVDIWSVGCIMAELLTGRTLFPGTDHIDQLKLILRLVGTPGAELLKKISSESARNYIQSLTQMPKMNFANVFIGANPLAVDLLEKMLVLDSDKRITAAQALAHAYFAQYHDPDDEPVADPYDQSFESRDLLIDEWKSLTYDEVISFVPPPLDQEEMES

SMILES	IC50 [µM]
COC(=O)c1cc(Cl)c(N2CC(Cc3ccc(F)cc3F)CCC2=O)c(Cl)c1 (centres undefined)	≤ 10
O=C1CCC(Oc2ccc(F)cc2)CN1c1c(Cl)cncc1Cl (centres undefined)	≤ 10
O=C1CCC(Cc2ccc(F)cc2F)CN1c1c(Cl)cc(NCCN2CCCC2)cc1Cl (centres undefined)	≤ 10
O=C1CCC(Sc2ccc(F)cc2F)CN1C1C(Cl)CCC(CO)C1Cl (centres undefined)	≤ 10
CNc1ccc(Cl)c(N2CC(Oc3ccc(F)cc3F)CCC2=O)c1Cl (centres undefined)	≤ 10
O=C1NCC(Cc2ccc(Cl)cc2Cl)CN1c1c(Cl)cccc1Cl (centres undefined)	≤ 10
CC(C)(C)NC(=O)CNc1cc(Cl)c(N2CC(Cc3ccc(F)cc3F)CCC2=O)c(Cl)c1 (centres undefined)	≤ 10
O=C1SCC(Cc2ccccc2F)CN1c1c(Cl)cccc1Cl (centres undefined)	≤ 10
O=C1CCC(Cc2ccc(F)cc2F)CN1C1C(Cl)CC(O)CC1Cl (centres undefined)	≤ 10
O=C1CCC(Oc2cc(Cl)cc(Cl)c2)CN1C1C(Cl)CCCC1Cl (centres undefined)	≤ 10
O=C1CCC(Sc2ccc(F)cc2F)CN1c1c(Cl)cnc(O)c1Cl (centres undefined)	≤ 10
O=C1CCC(Sc2ccc(Cl)cc2)CN1c1c(Cl)cccc1Cl (centres undefined)	≤ 10
CNC(=O)CCc1cc(Cl)c(N2CC(Cc3ccc(F)cc3F)CCC2=O)c(Cl)c1 (centres undefined)	≤ 10
O=C1CCC(Cc2ccc([N+](=O)[O-])cc2)CN1c1c(Cl)cccc1Cl (centres undefined)	≤ 10
O=C1CCC(Sc2ccc3ccccc3c2)CN1c1c(Cl)cncc1Cl (centres undefined)	≤ 10
N#Cc1ccccc1CC1CCC(=O)N(c2c(Cl)cccc2Cl)C1 (centres undefined)	≤ 10
O=C1CCC(Oc2cc(F)cc(F)c2)CN1c1c(Cl)ccnc1Cl (centres undefined)	≤ 10
O=C1CCC(Cc2cc(F)cc(F)c2)CN1C1C(Cl)CCCC1Cl (centres undefined)	≤ 10
Cc1cc(C)cc(CC2CCC(=O)N(c3c(Cl)ccnc3Cl)C2)c1 (centres undefined)	≤ 10
O=C1CCC(Cc2ccccc2Cl)CN1c1c(Cl)csc1Cl (centres undefined)	≤ 10
CC(C)(C)OC(=O)N(CC(=O)O)c1cc(Cl)c(N2CC(Cc3ccc(F)cc3F)CCC2=O)c(Cl)c1 (centres undefined)	≤ 10
CC(O)(c1ccc(F)cc1F)C1CCC(=O)N(c2c(Cl)cccc2Cl)C1 (centres undefined)	≤ 10
COc1ccc(SC2CCC(=O)N(c3c(Cl)csc3Cl)C2)cc1 (centres undefined)	≤ 10
CC(=O)Nc1cc(Cl)c(N2CC(Cc3ccc(F)cc3F)COC2=O)c(Cl)c1 (centres undefined)	≤ 10
O=C1CCC(Sc2cc(F)cc(F)c2)CN1c1c(Cl)cccc1Cl (centres undefined)	≤ 10
O=C1CCC(Sc2ccc(F)cc2)CN1c1c(Cl)cccc1Cl (centres undefined)	≤ 10
CNc1cc(Cl)c(N2CC(Sc3ccc(F)cc3F)CCC2=O)c(Cl)c1 (centres undefined)	≤ 10
O=C1[C@@H](O)C[C@@H](Cc2ccc(F)cc2F)CN1c1c(Cl)cccc1Cl	≤ 10

Next, values leading:

IC50 [µM]	SMILES
≤ 10	CC(=O)Nc1cc(Cl)c(N2CC(Cc3ccc(F)cc3F)OCC2=O)c(Cl)c1 (centres undefined)
≤ 10	Cc1ccc(SC2CCC(=O)N(c3c(Cl)ccnc3Cl)C2)c(C)c1 (centres undefined)
≤ 10	O=C1CCC(Oc2ccc(Cl)cc2Cl)CN1c1c(Cl)cccc1Cl (centres undefined)
≤ 10	Cc1ccc(CC2CCC(=O)N(c3c(Cl)cncc3Cl)C2)cc1 (centres undefined)
≤ 10	CCOC(=O)CCCNC(=O)c1cc(C)c(N2CC(Cc3ccc(F)cc3F)CCC2=O)c(C)c1 (centres undefined)
≤ 10	O=C1CCC(Cc2ccccc2)CN1C1C(Cl)CCCC1Cl (centres undefined)
≤ 10	O=C1CCC(Cc2ccc(Cl)cc2Cl)CN1c1c(Cl)cncc1Cl (centres undefined)
≤ 10	O=C(Cc1ccccc1)Nc1ncc(Cl)c(N2CC(Oc3ccc(F)cc3F)CCC2=O)c1Cl (centres undefined)
≤ 10	Cc1cc(C(=O)N2CCOCC2)cc(C)c1N1CC(Cc2ccc(F)cc2F)CCC1=O (centres undefined)
≤ 10	Cc1ccc(CC2CN(c3c(Cl)cccc3Cl)C(=O)CS2)cc1 (centres undefined)
≤ 10	COc1ccccc1CC1CN(C)C(=O)N(c2c(Cl)cccc2Cl)C1 (centres undefined)
≤ 10	O=C1CCC(C(O)c2cccs2)CN1c1c(Cl)cc(Br)cc1Cl (centres undefined)
≤ 10	CNC1CC(Cl)C(N2CC(Sc3ccc(F)cc3F)CCC2=O)C(Cl)C1 (centres undefined)
≤ 10	O=C1COC(Cc2ccc(F)cc2F)CN1c1c(Cl)ccc(CO)c1Cl (centres undefined)
≤ 10	CNc1ccc(Cl)c(N2CC(Cc3ccc(F)cc3F)OCC2=O)c1Cl (centres undefined)
≤ 10	Cc1cc(C#CCCN2CCOCC2)cc(C)c1N1CC(Cc2ccc(F)cc2F)CCC1=O (centres undefined)
